From US12391695B2, “PRMT5 inhibitors” (Lupin Limited, priority 2019, dated 2025)

How the values were obtained:
[1] = test system: SDMA; test: SDMA inhibition assay in Z-138 cells (ELISA with anti-SDMA antibody); assay type: cell-based; conditions: Homo sapiens, Z-138, 48 h, 48 h treatment, read-out: IC50 (activity range), SDMA inhibition
Method: Z-138 cells (ATCC, CRL-3001™) were seeded at a density of 1 million cells/well in transparent, flat bottomed tissue culture grade 48-well plates. Cells were treated with various concentration of test compounds for a period of 48 h. Cell lysate was prepared using 1× CST Lysis buffer (Cell Signaling Technology, USA) and 500 ng/well/50 μL of lysate in pH 9.6 carbonate buffer was coated on 96-well Maxisorb plate and incubated overnight at 4° C. The plate was washed twice in 1×PBS containing 0.05% Tween 20 and blocked in 1% BSA for 1 h at ambient temperature. Further, the plate was incubated first with primary antibody (anti-SDMA antibody; CST #13222s) at ambient temperature for 2 h and then with HRP-conjugated secondary antibody at ambient temperature for 1 h with 2 intermittent washing steps in between.
For luminiscence based detection, HRP substrates (substrate A+substrate B in a 1:1 proportion) were added followed by luminiscence reading after 30 min in Synergy™ 2 reader (Biotek, USA).
For absorbance based detection, TMB substrate was added followed by addition of STOP solution (2N H2SO4) post colour development and absorbance (excitation 450 nm and emission 540 nm) was measured in Synergy™ 2 reader (Biotek, USA).
% inhibition of SDMA was calculated relative to the vehicle control samples containing media with 0.1% DMSO alone as per the formula below. (Avg. of Untreated Control−Avg. of Test)×100 Avg. Of Untreated Control
The IC50 values of individual compounds were calculated with Non Linear Regression Analysis using Graph Pad Prism (Graph Pad software, Inc, USA).

[2] = test system: Z-138 cells; test: Anti-cancer assay (Z-138), cell viability by CellTiterGlo; assay type: cell-based; conditions: Homo sapiens, 96 h treatment, read-out: IC50 (activity range), inhibition of cell viability
Method: Z-138 cells were seeded at a density of 2000-3000 cells per well in culture media (IMDM+10% FBS). PANC-1 (ATCC, CRL-1469™) and MIA PaCa-2 (ATCC, CRL-1420™) cells were seeded at a density of 200-300 cells per well in culture media (DMEM+10% FBS). Cells were seeded in opaque, flat bottomed tissue culture grade 96-well plates and Z-138 cells (suspension) were seeded and treated on the same day with various concentrations of test compounds. PANC-1 and MIA PaCa-2 cells, being adherent, were kept for overnight settlement at standard cell culture conditions (37° C., 5% CO2). On the following day, cells were treated with various concentrations of test compounds. Cells were treated with test compounds for a period of 96 h, 7 days and 10 days, for Z-138 cells, PANC-1 cells and MIA PaCa-2 cells, respectively. Cell viability was assessed using CellTiterGlo™ (Promega, USA) as per manufacturer's instructions. Relative Light Units (RLU) were read in Synergy™ 2 reader (Biotek, USA). The assay measures cellular ATP as an indicator of cell viability. RLU is proportional to the number of viable cells in the respective well. % inhibition of cell viability was calculated relative to the vehicle control samples containing media with 0.1% DMSO alone as per the formula below. (Avg. of Untreated Control−Avg. of Test)×100 Avg. Of Untreated Control
The IC50 values of individual compounds were calculated with Non Linear Regression Analysis using Graph Pad Prism (Graph Pad software, Inc, USA). • Anti-Cancer Assay (Z-138)

[3] = target: PRMT5:MEP50 (Homo sapiens, UniProt O14744); test: PRMT5 biochemical assay (HTRF, biotinylated H4R3 substrate), protocols 1 and 2; conditions: 1 μM SAM, 50 nM biotinylated H4R3, protocol 1 or 2 not given, read-out: IC50 (activity range), inhibition of PRMT5
Method: (§1) Inhibitory effect of compounds on PRMT5 was assessed using HTRF detection technology in biochemical assay. Biotinylated H4R3 (residues 1-21) was used as a substrate. Compounds were pre-incubated with 15-25 ng PRMT5:MEP50 per well of a 384-well plate for 30 min at room temperature in the assay buffer containing 20 mM Bicine, pH 7.6, 25 mM NaCl, 2 mM DTT, 0.01% Chicken albumin and 0.01% Tween-20. Reaction was initiated by adding 1 μM of SAM and 50 nM biotinylated H4R3. Total assay volume was 15 μL. Reaction was continued for 120 min at room temperature. Then detection solution containing Streptavidin-Eu cryptate, anti-rabbit IgG-XL-665, Histone H4R3 Dimethyl Symmetric (H4R3me2s) Polyclonal Antibody, all prepared in HTRF detection buffer was added and further incubated for 30 min at room temperature. HTRF signal was recorded in PHERAStar microplate reader. Ratio of signal obtained at 665 nm and 620 nm was used to compute the percent inhibition of compound as follows % Inhibition=100−((Test Ratio−Negative control Ratio)/(Positive control Ratio−Negative control Ratio)*100) where Positive control=PRMT5+SAM+H4R3 Negative control=PRMT5+H4R3 Biochemical Assay Protocol 2
as §1, with “2.5” for “15-25”, “4 h” for “120 min”, “control=PRMT5+H4R3” for “control=PRMT5+H4R3 Biochemical Assay Protocol 2”

Chain of PRMT5:MEP50 (O14744 whole entry, the tested form may be a part): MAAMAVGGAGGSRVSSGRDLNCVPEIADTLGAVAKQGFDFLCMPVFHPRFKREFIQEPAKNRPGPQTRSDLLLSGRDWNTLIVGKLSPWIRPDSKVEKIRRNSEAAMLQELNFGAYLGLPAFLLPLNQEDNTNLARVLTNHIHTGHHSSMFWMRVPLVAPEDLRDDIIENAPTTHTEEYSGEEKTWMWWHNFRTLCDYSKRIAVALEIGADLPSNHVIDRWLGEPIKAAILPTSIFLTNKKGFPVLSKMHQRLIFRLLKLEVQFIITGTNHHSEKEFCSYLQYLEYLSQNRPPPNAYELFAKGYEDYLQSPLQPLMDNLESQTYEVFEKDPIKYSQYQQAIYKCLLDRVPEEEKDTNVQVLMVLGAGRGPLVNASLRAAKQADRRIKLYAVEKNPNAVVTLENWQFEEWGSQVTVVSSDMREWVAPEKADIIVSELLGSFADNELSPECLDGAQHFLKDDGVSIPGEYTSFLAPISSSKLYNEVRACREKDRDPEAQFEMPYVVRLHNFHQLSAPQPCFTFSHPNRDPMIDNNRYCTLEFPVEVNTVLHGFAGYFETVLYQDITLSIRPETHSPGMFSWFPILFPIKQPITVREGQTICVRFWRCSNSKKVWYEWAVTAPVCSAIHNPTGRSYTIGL
Chain of PRMT5:MEP50 (Q9BQA1 whole entry partner, the tested form may be a part): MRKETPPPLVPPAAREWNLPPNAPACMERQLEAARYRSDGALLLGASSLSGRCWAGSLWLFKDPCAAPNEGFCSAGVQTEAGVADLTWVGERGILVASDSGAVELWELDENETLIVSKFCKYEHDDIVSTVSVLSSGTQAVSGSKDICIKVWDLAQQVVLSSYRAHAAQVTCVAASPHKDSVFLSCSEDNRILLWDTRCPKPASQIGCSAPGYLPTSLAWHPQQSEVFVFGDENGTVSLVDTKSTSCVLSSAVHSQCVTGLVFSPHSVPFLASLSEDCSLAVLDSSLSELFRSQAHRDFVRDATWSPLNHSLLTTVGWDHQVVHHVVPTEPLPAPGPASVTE

`Nc1ncnc2c1ccn2[C@@H]1C=C(CCc2ccc(C(F)F)c3c2CNCC3)[C@@H](O)[C@H]1O` [Compound 11, (1S,2R,5R)-5-(4-amino-7H-pyrrolo[2,3-d]pyrimidin-7-yl)-3-(2-(5-(difluoromethyl)-1,2,3,4-tetrahydroisoquinolin-8-yl)ethyl)cyclopent-3-ene-1,2-diol] was tested, and the IC50 [1] was 1.1 to 50 nM, the IC50 [2] was over 1 nM and the IC50 [3] was 0.25 to 0.95 nM.
